Laboratory results from US9623014B2 (Entasis Therapeutics Limited, priority 2012, dated 2017).

Assays:
S. aureus (MRSA) = test: MIC, broth microdilution (CLSI); format: cell-based, Staphylococcus aureus; conditions: compound alone
Experimental: (§1) Minimum Inhibitory Concentrations (MICs) were determined by the broth microdilution method in accordance with the Clinical and Laboratory Standards Institute (CLSI) guidelines. Clinical Laboratory Standards Institute: Methods for Dilution Antimicrobial Susceptability Tests for Bacteria That Grow Aerobically (8th Ed. (2009)) M07-A8. In brief, organism suspensions were adjusted to a 0.5 McFarland standard and further diluted to yield a final inoculum between 3×10^5 and 7×10^5 colony-forming units (CFU)/mL. Bacterial inocula were made in sterile, cation adjusted Mueller-Hinton Broth (Beckton Dickinson) for either Escherichia coli, Klebsiella pneumoniae, or Pseudomonas aeruginosa. Haemophilus influenzae bacterial inocula were made in sterile, cation adjusted Mueller-Hinton Broth (Beckton Dickinson) containing 0.5% yeast extract (Beckton Dickinson) plus 15 μg/ml Bovine Hematin (Sigma) and 15 μg/ml β-nicotinamide adenine dinucleotide (Sigma). Bacterial inocula were made in sterile, cation adjusted Mueller-Hinton Broth (Beckton Dickinson) for Staphylococcus aureus or sterile, cation adjusted Mueller-Hinton Broth containing 2.5% lysed horse blood (Hema Resource & Supply Inc.) for Streptococcus pneumoniae and Streptococcus pyogenes. An inoculum volume of 100 uL was added to wells (using a Tecan EVO robot) containing 2 uL of DMSO containing 2-fold serial dilutions of drug. […] All inoculated microdilution trays were incubated in ambient air at 35° C. for 18-24 hours. Following incubation, the lowest concentration of the drug that prevented visible growth as read at OD600 nm was recorded as the MIC. Performance of the assay was monitored by the use of laboratory quality-control strains and commercially available control compounds with defined MIC spectrums, in accordance with CLSI guidelines.

S. aureus (MSSA) = test: MIC, broth microdilution (CLSI); format: cell-based, Staphylococcus aureus; conditions: compound alone
Experimental: as §1

[1] = test system: Klebsiella pneumoniae KPC2; test: Synergy with β-lactams (MIC of β-lactam at fixed inhibitor concentration); format: cell-based; conditions: MIC of ceftazidime + inhibitor at fixed 4 ug/ml
Experimental: (§2) Synergy with β-lactams was assessed against several organisms producing a variety of β-lactamases belonging to different classes. Bush & Jacoby, Updated Functional Classification of β-Lactamases, Antimicrobial Agents and Chemotherapy, 54:969-76 (2010). In the assays, growth inhibitory activity (MIC) was measured using either two-fold dilutions of the partner β-lactam at a fixed concentration of compounds of formula (I). Compounds were prepared in DMSO, and MIC determinations using the compound of formula (I)/β-lactam combinations were done according to the CLSI guidelines. Clinical Laboratory Standards Institute: Methods for Dilution Antimicrobial Susceptability Tests for Bacteria That Grow Aerobically (8th Ed. (2009)) M07-A8. Synergy was defined as a four-fold or more reduction in the MIC of the β-lactam in the presence of the compound of formula (I), compared to the β-lactam alone.

[2] = test system: Pseudomonas aeruginosa PER-1, OXA-10; test: as above; format: cell-based; conditions: MIC of ceftazidime + inhibitor at fixed 4 ug/ml
Experimental: as §2

Escherichia coli = test: MIC, broth microdilution (CLSI); format: cell-based; conditions: compound alone
Experimental: as §1

Streptococcus pyogenes = test: MIC, broth microdilution (CLSI); format: cell-based; conditions: compound alone
Experimental: as §1

Pseudomonas aeruginosa = test: MIC, broth microdilution (CLSI); format: cell-based; conditions: compound alone
Experimental: as §1

Streptococcus pneumoniae = test: MIC, broth microdilution (CLSI); format: cell-based; conditions: compound alone
Experimental: as §1

Klebsiella pneumoniae = test: MIC, broth microdilution (CLSI); format: cell-based; conditions: compound alone
Experimental: as §1

Haemophilus influenzae = test: MIC, broth microdilution (CLSI); format: cell-based; conditions: compound alone
Experimental: as §1

[3] = test system: Klebsiella pneumoniae KPC2; test: MIC alone against β-lactamase producing strain; format: cell-based; conditions: substance alone
Experimental: as §1

[4] = test system: Pseudomonas aeruginosa PER-1, OXA-10; test: MIC alone against β-lactamase producing strain; format: cell-based; conditions: substance alone
Experimental: as §1

## CC(C)C1=C[C@@H]2CN(C(=O)N2OS(=O)(=O)[O-])[C@@H]1C(N)=O.[Na+] [Example 11]
S. aureus (MRSA)
  MIC S. aureus (MRSA): >200 µg/mL
S. aureus (MSSA)
  MIC S. aureus (MSSA): 100 µg/mL
[1]
  MIC Klebsiella pneumoniae KPC2: 1 µM
[2]
  MIC Pseudomonas aeruginosa PER-1, OXA-10: 16 µM
Escherichia coli
  MIC E. coli: >200 µg/mL
Streptococcus pyogenes
  MIC S. pyogenes: 25 µg/mL
Pseudomonas aeruginosa
  MIC P. aeruginosa: >200 µg/mL
Streptococcus pneumoniae
  MIC S. pneumon.: 25 µg/mL
Klebsiella pneumoniae
  MIC K. pneumon.: >200 µg/mL
Haemophilus influenzae
  MIC H. influenzae: >200 µg/mL
[3]
  MIC Klebsiella pneumoniae KPC2: >16 µg/mL
[4]
  MIC Pseudomonas aeruginosa PER-1, OXA-10: >16 µg/mL
